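Method: 48-hour compound exposure of cells in 96-well plates, five concentrations, linear interpolation of endpoints. At the GI50, growth is halved.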 Activity calls are given as the source filed them. No stated cut-off is given here; in the data, active = GI50 up to about 1.1 µM and inactive = higher.
Experiments:
Assay in all cases: NCI tumour cell line growth inhibition, 48 h
[1] = test system: SK-MEL-28
[2] = test system: SW-620
[3] = test system: MDA-N
[4] = test system: NCI-H23
[5] = test system: OVCAR-5
[6] = test system: M14
[7] = test system: SF-295
[8] = test system: HOP-92
[9] = test system: NCI/ADR-RES
[10] = test system: CAKI-1
[11] = test system: COLO 205
[12] = test system: BT-549
[13] = test system: DU-145
[14] = test system: Malme-3M
[15] = test system: OVCAR-8
[16] = test system: IGROV-1
[17] = test system: HL-60
[18] = test system: T47D
[19] = test system: SNB-19
[20] = test system: NCI-H226
[21] = test system: UO-31
[22] = test system: PC-3
[23] = test system: SK-MEL-5
[24] = test system: K562
[25] = test system: SNB-75
[26] = test system: NCI-H522
[27] = test system: OVCAR-4
[28] = test system: CCRF-CEM
[29] = test system: TK-10
[30] = test system: SR
[31] = test system: LOX IMVI
[32] = test system: RPMI-8226
[33] = test system: MDA-MB-435
[34] = test system: SN12C
[35] = test system: HT-29
[36] = test system: ACHN
[37] = test system: NCI-H460
[38] = test system: HOP-62
[39] = test system: UACC-257
[40] = test system: SK-OV-3
[41] = test system: HCT-116
[42] = test system: 786-0
[43] = test system: SF-268
[44] = test system: Hs-578T
[45] = test system: MOLT-4
[46] = test system: UACC-62
[47] = test system: A549
[48] = test system: MCF7
[49] = test system: HCT-15
[50] = test system: U-251
[51] = test system: OVCAR-3
[52] = test system: EKVX
[53] = test system: KM12
[54] = test system: RXF 393
[55] = test system: A498
[56] = test system: SK-MEL-2
[57] = test system: HCC 2998

**Q.** For O=C(NC(Cc1ccccc1)P(=O)(O)c1ccccc1)OCc1ccccc1 (configuration not stated), which GI50 [1] is on record?
**A.** > 100 µM (inactive)

**Q.** What about the GI50 [2] of the same compound?
**A.** > 100 µM (inactive)

**Q.** What about the GI50 [3] of the same compound?
**A.** > 100 µM (inactive)

**Q.** What about the GI50 [4] of the same compound?
**A.** > 100 µM (inactive)

**Q.** And the GI50 [5]?
**A.** > 100 µM (inactive)

**Q.** And the GI50 [6]?
**A.** > 100 µM (inactive)

**Q.** And the GI50 [7]?
**A.** > 100 µM (inactive)

**Q.** What about the GI50 [8] of the same compound?
**A.** > 100 µM (inactive)

**Q.** What about the GI50 [9] of the same compound?
**A.** > 100 µM (inactive)

**Q.** And the GI50 [10]?
**A.** > 100 µM (inactive)

**Q.** And the GI50 [11]?
**A.** > 100 µM (inactive)

**Q.** What about the GI50 [12] of the same compound?
**A.** > 100 µM (inactive)

**Q.** What about the GI50 [13] of the same compound?
**A.** > 100 µM (inactive)

**Q.** And the GI50 [14]?
**A.** > 100 µM (inactive)

**Q.** What about the GI50 [15] of the same compound?
**A.** > 100 µM (inactive)

**Q.** And the GI50 [16]?
**A.** > 100 µM (inactive)

**Q.** What about the GI50 [17] of the same compound?
**A.** > 100 µM (inactive)

**Q.** And the GI50 [18]?
**A.** > 100 µM (inactive)

**Q.** And the GI50 [19]?
**A.** > 100 µM (inactive)

**Q.** What about the GI50 [20] of the same compound?
**A.** > 100 µM (inactive)

**Q.** What about the GI50 [21] of the same compound?
**A.** > 100 µM (inactive)

**Q.** What about the GI50 [22] of the same compound?
**A.** > 100 µM (inactive)

**Q.** What about the GI50 [23] of the same compound?
**A.** > 100 µM (inactive)

**Q.** And the GI50 [24]?
**A.** > 100 µM (inactive)

**Q.** And the GI50 [25]?
**A.** > 100 µM (inactive)

**Q.** And the GI50 [26]?
**A.** > 100 µM (inactive)

**Q.** And the GI50 [27]?
**A.** > 100 µM (inactive)

**Q.** And the GI50 [28]?
**A.** > 100 µM (inactive)

**Q.** What about the GI50 [29] of the same compound?
**A.** > 100 µM (inactive)

**Q.** And the GI50 [30]?
**A.** > 100 µM (inactive)

**Q.** What about the GI50 [31] of the same compound?
**A.** > 100 µM (inactive)

**Q.** What about the GI50 [32] of the same compound?
**A.** > 100 µM (inactive)

**Q.** What about the GI50 [33] of the same compound?
**A.** > 100 µM (inactive)

**Q.** And the GI50 [34]?
**A.** > 100 µM (inactive)

**Q.** What about the GI50 [35] of the same compound?
**A.** > 100 µM (inactive)

**Q.** And the GI50 [36]?
**A.** > 100 µM (inactive)

**Q.** And the GI50 [37]?
**A.** > 100 µM (inactive)

**Q.** And the GI50 [38]?
**A.** > 100 µM (inactive)

**Q.** What about the GI50 [39] of the same compound?
**A.** > 100 µM (inactive)

**Q.** What about the GI50 [40] of the same compound?
**A.** > 100 µM (inactive)

**Q.** What about the GI50 [41] of the same compound?
**A.** > 100 µM (inactive)

**Q.** What about the GI50 [42] of the same compound?
**A.** > 100 µM (inactive)

**Q.** And the GI50 [43]?
**A.** > 100 µM (inactive)

**Q.** And the GI50 [44]?
**A.** > 100 µM (inactive)

**Q.** And the GI50 [45]?
**A.** > 100 µM (inactive)

**Q.** And the GI50 [46]?
**A.** > 100 µM (inactive)

**Q.** What about the GI50 [47] of the same compound?
**A.** > 100 µM (inactive)

**Q.** What about the GI50 [48] of the same compound?
**A.** > 100 µM (inactive)

**Q.** And the GI50 [49]?
**A.** > 100 µM

**Q.** What about the GI50 [50] of the same compound?
**A.** > 100 µM (inactive)

**Q.** And the GI50 [51]?
**A.** > 100 µM (inactive)

**Q.** And the GI50 [52]?
**A.** > 100 µM (inactive)

**Q.** And the GI50 [53]?
**A.** > 100 µM (inactive)

**Q.** What does the source list for COC(=O)C(Cc1c[nH]c2ccccc12)NC(=O)C(Cc1c[nH]cn1)NC(=O)C1CCC(=O)N1C(=O)OCc1ccccc1 (configuration not stated)?
**A.** GI50 [1]: > 100 µM (inactive); GI50 [2]: > 100 µM (inactive); GI50 [3]: > 100 µM (inactive); GI50 [4]: > 100 µM (inactive); GI50 [5]: > 100 µM (inactive); GI50 [54]: > 100 µM (inactive); GI50 [6]: > 100 µM (inactive); GI50 [8]: > 100 µM (inactive); GI50 [11]: > 100 µM (inactive); GI50 [12]: > 100 µM (inactive); GI50 [14]: > 100 µM (inactive); GI50 [15]: > 100 µM (inactive); GI50 [16]: > 100 µM (inactive); GI50 [17]: > 100 µM (inactive); GI50 [18]: 5.13 µM (inactive); GI50 [19]: > 100 µM (inactive); GI50 [20]: > 100 µM (inactive); GI50 [21]: > 100 µM (inactive); GI50 [22]: > 100 µM (inactive); GI50 [55]: 7.35 µM (inactive); GI50 [23]: > 100 µM (inactive); GI50 [24]: > 100 µM (inactive); GI50 [25]: > 100 µM (inactive); GI50 [28]: > 100 µM (inactive); GI50 [29]: > 100 µM (inactive); GI50 [30]: > 100 µM (inactive); GI50 [32]: > 100 µM (inactive); GI50 [35]: > 100 µM (inactive); GI50 [56]: > 100 µM (inactive); GI50 [36]: > 100 µM (inactive); GI50 [57]: > 100 µM (inactive); GI50 [37]: > 100 µM (inactive); GI50 [38]: > 100 µM (inactive); GI50 [39]: > 100 µM (inactive); GI50 [41]: > 100 µM (inactive); GI50 [42]: > 100 µM (inactive); GI50 [44]: > 100 µM (inactive); GI50 [45]: > 100 µM (inactive); GI50 [46]: > 100 µM (inactive); GI50 [47]: > 100 µM (inactive); GI50 [48]: > 100 µM (inactive); GI50 [50]: > 100 µM (inactive); GI50 [52]: > 100 µM (inactive); GI50 [53]: > 100 µM (inactive)
